# Results: patent publication US10493064B2, “IBS microbiota and uses thereof” (priority 2014, dated 2019)
# Where two headings read alike, the source gives them in different places.
# Tests used:
# Staphylococcus isolates = assay: Broth microdilution susceptibility (MIC) testing of Staphylococcus isolates cultured from skin swabs; type: cell-based; conditions: for resistance of S. aureus isolates: S. aureus isolates from skin swabs, OL or DB phases; for changes in MIC90 values: return to baseline by end of study; for MIC: read-out: maximum MIC concentration observed
# [1] = system: Staphylococcus isolates cultured from stool; assay: Susceptibility (MIC) testing of stool culture isolates: Staphylococcus; type: cell-based; conditions: end of Treatment 2 (OL) and end of Treatment 3 (DBR); returned to baseline in follow-up
# stool microbiota = assay: 16S rRNA gene sequencing of stool microbiota in IBS-D subjects (richness, diversity, evenness, family abundance); type: in vivo, human; conditions: for Shannon diversity: DB rifaximin group
# Protocol: Stool aliquots from the selected subjects were shipped frozen for genomic sequencing. The samples were thawed at the time of testing. DNA was extracted from stool. Next-generation sequencing technology (Illumina HiSeq2500) was used to sequence the V4 region of the 16S ribosomal RNA. In order to do this, a 286 base pair (bp) region was amplified […] first using Illumina's adapter information, and then a second round of demultiplexing was performed. Approximately 4.6 billion total ([…] paired ends) sequences were generated from the selected stool samples. […] There were 172 separate families identified from subjects randomly selected. […] This list also included families of bacteria that contained known pathogens. The Shannon Diversity Index was used to determine the diversity (which takes into account not only the number of bacterial families present, but also the relative abundance of those families) of the stool microbiota at each visit.
# Bacteroides = assay: Susceptibility (MIC) testing of stool culture isolates: Bacteroides; type: cell-based
# C. difficile = assay: Susceptibility testing of stool culture isolates: C. difficile; type: cell-based, Clostridium difficile
# [2] = Phase 3 repeat treatment study in IBS patients, infection rates; type: in vivo, human; conditions: following single or repeat treatment courses in IBS patients
# Protocol: Subjects entered a Screening/Treatment 1 Phase which included a 10 (±3) day treatment, during which the subjects received single-blind placebo TID and completed a daily symptom diary. Following the Screening/Treatment 1 Phase, eligible subjects entered the Treatment 2 Phase and received open-label rifaximin 550 mg TID for 2 weeks with a 4 week treatment-free follow-up. At the end of the Treatment 2 Phase, subjects who achieved treatment success in both IBS-related abdominal pain and stool consistency during at least 2 weeks of the 4 week follow-up period were classified as responders and entered a treatment-free Maintenance Phase 1. Non-responders in the Treatment 2 Phase were withdrawn from the study to provide an enriched population of subjects who respond to treatment with rifaximin.
# The treatment-free Maintenance Phase 1 varied in time (up to 18 weeks in total) and depended upon the time of symptom recurrence. […] Subjects with recurrence entered Treatment 3 Phase, also referred to as the Double-Blind (DB) Repeat Treatment Phase. In this phase, subjects were randomized 1:1 to receive either rifaximin 550 mg TID or placebo TID for 2 weeks with a 4-week treatment-free follow-up. All subjects from the Treatment 3 Phase then entered a 6-week maintenance phase (Maintenance Phase 2). […]
# S. aureus = assay: Skin swab culture for S. aureus in IBS-D subjects; type: in vivo, human; conditions: OL or DB phases
# Protocol: For the skin swab study, skin swab collection was performed for a subset of subjects (approximately 10% of the study population) at each of the following visits: Visits 3 and 4 (baseline and after two weeks of open-label rifaximin 550 mg TID [Treatment 2], respectively), Visits 6 and 7 (prior to and immediately after two weeks of double-blind retreatment [Treatment 3] with rifaximin 550 mg TID or placebo), and Visit 11 (End of Study). For each subject in this study, skin swabs were collected from the peri-rectum, nares, palms of hands, and forearms, and swabs were shipped immediately to the microbiology laboratory at ambient temperature in media-containing tubes. Skin swab cultures were conducted to isolate all Staphylococcus species.
# Upon receipt at the microbiology laboratory, each skin swab was plated onto tryptic soy agar containing 5% sheep's blood and Columbia-colistin nalidixic acid agar with 5% sheep's blood to select for Gram-positive colonies. […] The inoculated plates were incubated at 35° C. in a 5-7% CO2 incubator, with plates examined at 24 and 48 h for bacterial growth.
# [3] = skin swab, OL Week 2, following rifaximin treatment
# [4] = skin swab, OL follow-up Week 7 to Week 10
# [5] = skin swab, OL follow-up Week 11 to Week 14
smiles,measurement,setting,value
O=C(O)c1cn(C2CC2)c2cc(N3CCNCC3)c(F)cc2c1=O [ciprofloxacin],resistance of Staphylococcus isolates,"Staphylococcus isolates; some skin swab isolates, did not substantially change with rifaximin treatment or time",low levels of resistance
CO[C@H]1/C=C/O[C@@]2(C)Oc3c(C)c(O)c4c(O)c(c(/C=N/N5CCN(C)CC5)c(O)c4c3C2=O)NC(=O)/C(C)=C\C=C\[C@H](C)[C@H](O)[C@@H](C)[C@@H](O)[C@@H](C)[C@H](OC(C)=O)[C@@H]1C [rifampin],change in MIC values,[1],Transient increases
same,changes in MIC50 values,Staphylococcus isolates,no changes
same,resistant isolates,"Staphylococcus isolates; DB placebo treated subjects, Day 1, peri-rectum",1 isolates
same,resistant isolates,"Staphylococcus isolates; DB placebo treated subjects, Week 2, peri-rectum",2 isolates
same,resistant isolates,"Staphylococcus isolates; DB placebo treated subjects, treatment period, all from peri-rectum",3 isolates
same,isolates with MIC value of ≥4 μg/mL,"Staphylococcus isolates; OL Last Assessment Visits between Week 7 and Week 32, […]",16 isolates
same,resistance of S. aureus isolates,Staphylococcus isolates,no S. aureus isolates showed resistance
same,MIC90,"Staphylococcus isolates; Staphylococcus, 24 h, […], DB placebo subjects, all Visits from Day 1 to DB Last Assessment",≤ 0.015 µg/mL
same,MIC90,"Staphylococcus isolates; Staphylococcus, 24 h, […], OL phase, Treatment 2 visit (Day 1), prior to rifaximin",≤ 0.015 µg/mL
same,MIC50,"Staphylococcus isolates; Staphylococcus, 24 h, […], OL phase, Treatment 2 visit (Day 1), prior to rifaximin, read-out: MIC50",≤ 0.015 µg/mL
same,MIC90,"Staphylococcus isolates; Staphylococcus, 336 h, […], OL phase, EOT2 Visit (Week 2), after rifaximin 550 mg TID 2 weeks",16 µg/mL
same,MIC50,"Staphylococcus isolates; Staphylococcus, 336 h, […], OL phase, EOT2 Visit (Week 2), after rifaximin 550 mg TID 2 weeks, read-out: MIC50",≤ 0.015 µg/mL
same,MIC90,"Staphylococcus isolates; Staphylococcus, […], OL Last Assessment Visits, Weeks 7 to 10",0.5 µg/mL
same,MIC90,"Staphylococcus isolates; Staphylococcus, […], OL Last Assessment Visits, from Week 11 onward",≤ 0.015 µg/mL
same,MIC50,"Staphylococcus isolates; […], DB placebo subjects, all Visits from Day 1 to DB Last Assessment",≤ 0.015 µg/mL
same,MIC range,"Staphylococcus isolates; […], OL phase, Day 1 of Treatment 2",0.015 to 0.12 µg/mL
same,changes in MIC90 values,Staphylococcus isolates; […],Transient changes
same,resistant isolates cultured from the left lower arm swabs,"Staphylococcus isolates; skin swab, OL Week 2",3 isolates
same,resistant isolates cultured from the palms of the hands,"Staphylococcus isolates; skin swab, OL Week 2",4 isolates
same,resistant isolates on the peri-rectum,"Staphylococcus isolates; skin swab, OL Week 2",32 isolates
same,isolates with a MIC value ≥4 μg/mL (resistant),Staphylococcus isolates; [3],39 isolates
same,isolates with an MIC value of <4 μg/mL (susceptible),Staphylococcus isolates; [3],297 isolates
same,resistant isolates (count),Staphylococcus isolates; [4],Seven
same,"resistant isolates, % of isolates",Staphylococcus isolates; [4],9.5%
same,resistant isolates (count),Staphylococcus isolates; [5],7 isolates
same,"resistant isolates, % of isolates",Staphylococcus isolates; [5],2.8%
same,resistant isolates,"Staphylococcus isolates; skin swab, OL follow-up Week 15 to Week 32",No rifampin resistant isolates
CO[C@H]1/C=C/O[C@@]2(C)Oc3c(C)c(O)c4c(O)c(c5c(nc6cc(C)ccn65)c4c3C2=O)NC(=O)/C(C)=C\C=C\[C@H](C)[C@H](O)[C@@H](C)[C@@H](O)[C@@H](C)[C@H](OC(C)=O)[C@@H]1C [rifaximin],change in MIC values,[1],Transient increases
same,evenness in the microbiota,stool microbiota; DB phase,unchanged
same,richness of the microbiota,"stool microbiota; DB phase, rifaximin treated subjects, Week 2, reversed in follow-up",decreased
same,Shannon diversity,stool microbiota; after the 2 week treatment period,1.698
same,Shannon diversity,stool microbiota; baseline of DB phase,1.786
same,decrease in richness of the microbiota,"stool microbiota; OL phase, baseline to Week 2",1.235 families
same,change in Shannon diversity of the stool microbiota,"stool microbiota; OL phase, rifaximin 550 mg TID 2 weeks",no substantial change
same,evenness of the microbiota,"stool microbiota; OL phase, rifaximin treatment",not affected
same,increases in the MIC50 or MIC90,Bacteroides,within the range of MICs reported both at baseline
same,susceptibility,C. difficile; all C. difficile cultured from stool,highly susceptible
same,resistance of C. difficile isolates,C. difficile; isolates identified in stool samples,none of these isolates demonstrated rifaximin resistance
same,resistance of S. aureus isolates,Staphylococcus isolates,no S. aureus isolates showed resistance
same,MIC90,"Staphylococcus isolates; Staphylococcus, 24 h, skin swab isolates, DB phase Day 1 (Treatment 3), subjects randomized to placebo",0.03 µg/mL
same,MIC90,"Staphylococcus isolates; Staphylococcus, 24 h, skin swab isolates, DB phase Day 1, subjects randomized to rifaximin",0.03 µg/mL
same,MIC90,"Staphylococcus isolates; Staphylococcus, 24 h, skin swab staphylococcal isolates, OL phase, Treatment 2 visit (Day 1), prior to rifaximin",0.03 µg/mL
same,MIC50,"Staphylococcus isolates; Staphylococcus, 24 h, skin swab staphylococcal isolates, OL phase, Treatment 2 visit (Day 1), prior to rifaximin, read-out: MIC50",0.015 µg/mL
same,MIC90,"Staphylococcus isolates; Staphylococcus, 336 h, skin swab isolates, OL phase, EOT2 Visit (Week 2), after rifaximin 550 mg TID 2 weeks",32 µg/mL
same,MIC50,"Staphylococcus isolates; Staphylococcus, 336 h, skin swab isolates, OL phase, EOT2 Visit (Week 2), after rifaximin 550 mg TID 2 weeks, read-out: MIC50",0.015 µg/mL
same,MIC90,"Staphylococcus isolates; Staphylococcus, skin swab isolates, DB rifaximin subjects, EOT3 Visit (Week 2)",32 µg/mL
same,MIC90,"Staphylococcus isolates; Staphylococcus, skin swab isolates, DB rifaximin subjects, Week 15 to Week 22",0.5 µg/mL
same,MIC90,"Staphylococcus isolates; Staphylococcus, skin swab isolates, DB rifaximin subjects, between Week 11 and Week 14",64 µg/mL
same,MIC90,"Staphylococcus isolates; Staphylococcus, skin swab isolates, DB rifaximin subjects, between Week 23 and Week 38",0.06 µg/mL
same,MIC90,"Staphylococcus isolates; Staphylococcus, skin swab isolates, OL Last Assessment Visits, Weeks 7 to 10",2 µg/mL
same,MIC,"Staphylococcus isolates; Staphylococcus, skin swab isolates, OL Last Assessment Visits, after decrease with time off rifaximin",0.06 µg/mL
same,MIC,"Staphylococcus isolates; Staphylococcus, skin swab isolates, OL Last Assessment Visits, before decrease with time off rifaximin",64 µg/mL
same,MIC90,"Staphylococcus isolates; Staphylococcus, skin swab isolates, OL Last Assessment Visits, from Week 11 onward",0.03 µg/mL
same,MIC50,"Staphylococcus isolates; Staphylococcus, skin swab isolates, DB rifaximin subjects, DB Last Assessment Visits, read-out: MIC50",0.015 to 0.06 µg/mL
same,MIC50,"Staphylococcus isolates; skin swab isolates, DB phase Day 1 (Treatment 3), subjects randomized to placebo",0.015 µg/mL
same,MIC50,"Staphylococcus isolates; skin swab isolates, DB phase Day 1, subjects randomized to rifaximin",0.015 µg/mL
same,changes in MIC50 values,"Staphylococcus isolates; skin swab staphylococcal isolates, overall with rifaximin treatment",no changes
same,changes in MIC90 values,"Staphylococcus isolates; skin swab staphylococcal isolates, overall",Transient changes
same,infection rates,[2],no increased infection rates
same,change in the number of S. aureus isolates,S. aureus,no increase
